In PubChem BioAssay (NCI):
“And” between values parts separate entries of the source, which are not always exact repeats. Equal values may be shown once.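 Cultured in 96-well plates, cells were exposed to test compound for 48 hours across five concentrations. Abbreviation: GI50, concentration required for 50% inhibition of growth. Definition used: TGI = concentration required for complete inhibition of growth.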

Legend:
Assay in all cases: NCI-60 cell line screen, 48 h
OVCAR-4 ovarian = tested on: OVCAR-4 ovarian
HCT-116 colon = tested on: HCT-116 colon
SF-295 CNS = tested on: SF-295 CNS
LOX IMVI melanoma = tested on: LOX IMVI melanoma
HCT-15 colon = tested on: HCT-15 colon
SR leukemia = tested on: SR leukemia
SK-OV-3 ovarian = tested on: SK-OV-3 ovarian
SK-MEL-2 melanoma = tested on: SK-MEL-2 melanoma
NCI-H522 lung = tested on: NCI-H522 lung
ACHN renal = tested on: ACHN renal

Row | Compound | GI50 (OVCAR-4 ovarian) | TGI (OVCAR-4 ovarian) | GI50 (HCT-116 colon) | TGI (HCT-116 colon) | GI50 (SF-295 CNS) | TGI (SF-295 CNS) | GI50 (LOX IMVI melanoma) | TGI (LOX IMVI melanoma) | GI50 (HCT-15 colon) | TGI (HCT-15 colon) [µM] | GI50 (SR leukemia) | TGI (SR leukemia) | GI50 (SK-OV-3 ovarian) | TGI (SK-OV-3 ovarian) | GI50 (SK-MEL-2 melanoma) | TGI (SK-MEL-2 melanoma) | GI50 (NCI-H522 lung) | TGI (NCI-H522 lung) | GI50 (ACHN renal) | TGI (ACHN renal)
1 | Cc1ccc(C2NC(=S)N3C(c4ccc(C)cc4)NC(=S)N23)cc1 (stereo not given) | 9.89 µM | 21.9 µM | 4 µM | 13.4 µM | 2.92 µM | 11.8 µM | 8.84 µM | 22.1 µM | 3.7 µM | 15.3 | 0.491 µM | 3.55 µM | 4.77 µM | 15.5 µM | 3.4 µM | 12.1 µM | 1.94 µM | 8.54 µM | 10.1 µM | 21.7 µM
2 | N#Cc1ccc(N2Cc3cc(Cl)ccc3OC3=C2C(=O)N(Cc2ccc(F)cc2)C3=O)cc1 | 0.206 µM | 0.563 µM | 0.275 µM | 0.934 µM | 4.65 µM | 14.5 µM | 0.453 µM | 0.908 µM | 0.543 µM | 1.43 | 0.275 µM | 1.12 µM | 16.2 µM | 55.7 µM | 0.314 µM | 0.867 µM | 0.475 µM | 1.01 µM | 0.479 µM | 0.913 µM
3 | O=C1c2ccccc2-c2c1c1c(O)cccc1n2CCCc1ccccc1 | 87.7 µM | > 100 µM | 5.91 µM | > 100 µM | 7.33 µM | > 100 µM | 43.9 µM | > 100 µM | 4.11 µM | > 100 | 4.05 µM | > 100 µM | 84.3 µM | > 100 µM | 18.5 µM | 87.3 µM | 3.85 µM | 38.5 µM | 14.1 µM | 66.9 µM
4 | Cc1ccc(-n2nnc3c(sc4ccccc43)c2=O)cc1 | 2.02 µM | 4.82 µM | 3.1 µM | > 100 µM | 3.03 µM | 14.5 µM | 4.09 µM | > 100 µM | > 100 µM | > 100 | > 100 µM | > 100 µM | 3.54 µM | 19.4 µM | 99 µM | > 100 µM | 63.5 µM | > 100 µM | 4.17 µM | > 100 µM
5 | CCCCCCCCCCCCNC(=O)[C@H]1CSC(c2cc(Br)cs2)N1 (stereo not given in full) | 0.917 µM | 1.95 µM | 0.909 µM | 1.74 µM | 1.42 µM | 5.01 µM | 0.797 µM | 1.56 µM | 1.03 µM | 2.38 | 0.967 µM | 2.27 µM | 1.06 µM | 2.23 µM | 0.916 µM | 1.77 µM | 1.37 µM | 4.31 µM | 2.01 µM | 6.54 µM
6 | Cc1nn2c(=O)n(-c3cccc(-n4nnc5c(-c6ccccc6)c(C)nn5c4=O)c3C)nnc2c1-c1ccccc1 | – | 53.7 µM | – | 30.4 µM | – | > 100 µM | – | > 100 µM | – | 63.8 | – | 55.8 µM | – | > 100 µM | – | 17.5 µM | – | 33.2 µM | – | 76.7 µM
7 | c1cc2ccc3cc2cc1CNCCOCCNCc1ccc2ccc(cc2c1)CNCCOCCNC3 | > 100 µM | > 100 µM | > 100 µM | > 100 µM | > 100 µM | > 100 µM | > 100 µM | > 100 µM | > 100 µM | > 100 | > 100 µM | > 100 µM | > 100 µM | > 100 µM | > 100 µM | > 100 µM | > 100 µM | > 100 µM | > 100 µM | > 100 µM
8 | NC(=O)c1ccccc1NC(=O)C(=O)Nc1n[nH]c(N)n1 | – | > 100 µM | – | > 100 µM | – | > 100 µM | – | > 100 µM | – | > 100 | – | > 100 µM | – | > 100 µM | – | > 100 µM | – | > 100 µM | – | > 100 µM
9 | O=C1c2ccccc2C(=O)c2c(NCCNCCO)ccc(NCCNCCO)c21 | 0.896 µM and 1.13 µM and 0.986 µM | 4.87 µM and 4.02 µM and 4.54 µM | 0.715 µM and 0.908 µM and 0.934 µM | 6.79 µM and 6.81 µM and 11.2 µM | 0.416 µM and 0.655 µM and 0.89 µM | 4.47 µM and 9.66 µM and 9.97 µM | 0.426 µM and 0.941 µM and 0.545 µM | 4.19 µM and 6.13 µM and 6.12 µM | 10.1 µM and 14.8 µM and 11.2 µM | > 100 | 1.49 µM and 0.492 µM and 0.267 µM | 13.2 µM and 36.8 µM | 1.26 µM and 1.45 µM and 2.06 µM | 11.5 µM and 9.32 µM and 11.8 µM | 2.22 µM and 2.7 µM and 2.09 µM | 5.79 µM and 16.7 µM and 3.77 µM | 0.482 µM and 0.452 µM and 0.267 µM | 5.48 µM and 2.22 µM and 1.32 µM | 2.05 µM and 0.967 µM and 1.39 µM | 49 µM and 13 µM and > 44.8 µM
10 | COc1cccc(C(C#N)NC23CC4CC(CC(C4)C2)C3)c1 (stereo not given) | – | > 100 µM | – | > 100 µM | – | > 100 µM | – | > 100 µM | – | > 100 | – | > 100 µM | – | > 100 µM | – | > 100 µM | – | > 100 µM | – | > 100 µM
11 | Nc1ncnc2c1nc(N)n2C1OC(CO)C(O)C1O (stereo not given) | 1.42 µM | 7.16 µM | 0.302 µM | 10.5 µM | 1.78 µM | 6.09 µM | 0.212 µM | 1.17 µM | 0.433 µM | 10.7 | 0.524 µM | 4.38 µM | 0.52 µM | 3.45 µM | 0.72 µM | 2.92 µM | 0.809 µM | 2.61 µM | 0.348 µM | > 100 µM
12 | COc1ccc(Oc2nc(Nc3ccc(N4CCOCC4)cc3)ncc2NC(=O)Nc2cc(OC)cc(OC)c2)cc1 | 2.91 µM | 10.9 µM | 1.14 µM | 3.27 µM | 4.19 µM | 12.7 µM | 3.59 µM | 12.6 µM | 15.4 µM | > 33.3 | 6.76 µM | > 33.3 µM | 7.86 µM | 25.6 µM | 4.11 µM | 15.9 µM | 3.94 µM | 21.7 µM | 4.23 µM | 20.4 µM
13 | CCc1ccc(Oc2nccc(-c3c(-c4ccc(F)cc4)ncn3C3CCNCC3)n2)cc1 | 5.02 µM | 13 µM | 5.84 µM | 13.9 µM | 5.52 µM | 12.1 µM | 4.78 µM | 10.2 µM | 6.35 µM | 15.8 | 7.25 µM | 18.1 µM | 4.37 µM | 9.21 µM | 5.24 µM | 9.48 µM | 4.73 µM | 8.67 µM | 4.77 µM | 13.6 µM
14 | COc1ccc(/C=C/c2ccnc3ccccc23)cc1 | – | 19.9 µM | – | 29.1 µM | – | 32.7 µM | – | 31 µM | – | 39.6 | – | 61.1 µM | – | 33.5 µM | – | 38.4 µM | – | 36.6 µM | – | 27 µM
